Measurements published in US20250177383A1, “DI-CYCLOPROPYL BASED IL-17A MODULATORS AND USES THEREOF” (DICE ALPHA, INC., priority 2022, published 2025).

Columns and labels:
[1] = molecular target: T1, IL-17A/A (Homo sapiens, UniProt Q16552); assay: IL-17A/A HEK-Blue Cell Assay; type: cell-based; conditions: HEK-Blue IL-17 reporter cells, IL-17A/A stimulation, 20 hours, SEAP readout; for IC50: read-out: IL17 AA HEK-5 pIC50 (converted)
T1 sequence (Q16552 24-155): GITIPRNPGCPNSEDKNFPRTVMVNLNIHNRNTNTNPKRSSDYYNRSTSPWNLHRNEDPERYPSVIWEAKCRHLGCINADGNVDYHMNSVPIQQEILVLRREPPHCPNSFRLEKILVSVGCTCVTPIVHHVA
Procedure, shortened: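 Cells co-expressing IL-17RA, IL-17RC and Act1 received titrated compound, top final 10 uM in 0.1% DMSO, immediately before IL-17A/A stimulation.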

[2] = molecular target: T2, IL-17A/F (Homo sapiens, UniProt Q16552+Q96PD4); assay: IL-17A/F HEK-Blue Cell Assay; type: cell-based; conditions: HEK-Blue IL-17 reporter cells, IL-17A/F stimulation, 20 hours, SEAP readout; for IC50: read-out: IL17AF HEK Blue pIC50 (converted)
T2 sequence (Q16552 24-155): T1 sequence (Q16552 24-155)
T2 sequence (Q96PD4 31-163): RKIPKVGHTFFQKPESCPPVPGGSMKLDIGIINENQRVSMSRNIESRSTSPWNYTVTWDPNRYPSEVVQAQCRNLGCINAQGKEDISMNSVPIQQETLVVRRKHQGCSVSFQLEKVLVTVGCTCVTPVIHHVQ
Experimental: The HEK-Blue IL-17 reporter cell line (Fisher #NC1408637) was used for cell-based IL-17A/F inhibition assays. Cells were grown and prepared for assays according to the manufacturer's instructions. This cell line consists of HEK 293 cells that were designed to expressed IL-17RA, IL-17R^C, and the ActI adapter molecule, the combination of which, when stimulated by IL-17A/A activates a NFκB promoter and drives expression of a recombinant Secreted Alkaline Phosphatase (SEAP) geneprotein. Media from the cells is then added to a development reagent (Quanti-Blue Substrate, Fisher #NC9711613), and read at A630.
Compounds were titrated in DMSO and added to the cells immediately before adding IL-17A/A (Custom from R&D systems, untagged IL-17A/F+BSA as a carrier protein). The cells, compound, and IL-17A/A were then incubated for 20 hours before media was removed for SEAP analysis. The resulting inhibition curve was then analyzed using a Dotmatics screening protocol, and IC50 values were determined using a 4-parameter nonlinear fit. DMSO was added to a universal final concentration of 0.1% to optimize background.

Row | SMILES | IC50 [1] [nM] | IC50 [2] [nM] | IL17AF HEK Blue pIC50 [2] | IL17 AA HEK-5 pIC50 [1]
1 | CO[C@@H](C)C(=O)N[C@@H](C(=O)N1CCN(C)CC1)[C@@H](C)c1ccc(NC(=O)[C@@H](NC(=O)c2nonc2C)C(C2CC2)C2CC2)c(F)c1 [Compound 347] | < 10 | 100 to 10000 | – | –
2 | CCC(=O)NC(C(=O)N1CCN(C)CC1)C(c1ccc(NC(=O)[C@@H](NC(=O)c2ccnn2CC)C(C2CC2)C2CC2)c(F)c1)C(F)(F)F (single isomer, unassigned) [Compound 352] | 100 to 10000 | – | C (7>C≥5) | –
3 | CO[C@@H](C)C(=O)N[C@@H](C(=O)N1CCN(C)CC1)[C@@H](C)c1ccc(NC(=O)[C@@H](NC(=O)c2ccnn2C2CC2)C(C2CC2)C2CC2)c(F)c1 [Compound 341] | < 10 | 100 to 10000 | – | –
4 | CCn1nccc1C(=O)N[C@H](C(=O)Nc1ccc([C@H](C)[C@@H](NC(=O)[C@H](C)OC)C(=O)N2CCN(C)C[C@@H]2C)cc1F)C(C1CC1)C1CC1 [Compound 284] | < 10 | 10 to 100 | – | –
5 | CCn1nccc1C(=O)N[C@H](C(=O)Nc1ccc([C@H](C)[C@@H](NC(=O)C(C)C2CC2)C(=O)N2CCN(C)CC2)cc1F)C(C1CC1)C1CC1 (single isomer, unassigned) [Compound 317] | < 10 | 10 to 100 | – | –
6 | CCn1nccc1C(=O)N[C@H](C(=O)Nc1ccc([C@H](C)[C@@H](NC(=O)[C@H](C)OC)C(=O)N2C[C@@H](C)N(C)C[C@H]2C)cc1F)C(C1CC1)C1CC1 [Compound 287] | < 10 | < 10 | – | –
7 | C[C@@H](c1ccc(NC(=O)[C@@H](NC(=O)C2(F)CC2)C(C2CC2)C2CC2)c(F)c1)[C@@H](NC(=O)N(C)C1CC1)C(=O)N1CCN(C)CC1 [Compound 270] | < 10 | 100 to 10000 | – | –
8 | CCn1nccc1C(=O)N[C@H](C(=O)Nc1ccc([C@H](C)[C@@H](NC(=O)[C@H](C)Nc2ncccn2)C(=O)N2CCN(C)[C@H](C)C2)cc1F)C(C1CC1)C1CC1 [Compound 306] | < 10 | < 10 | – | –
9 | CCn1nccc1C(=O)N[C@H](C(=O)Nc1ccc([C@H](C)[C@@H](NC(=O)C(C)Cc2cc(O)no2)C(=O)N2CCN(C)[C@H](C)C2)cc1F)C(C1CC1)C1CC1 (single isomer, unassigned) [Compound 343] | 10 to 100 | 100 to 10000 | – | –
10 | C[C@@H](c1ccc(NC(=O)[C@@H](NC(=O)C2(F)CC2)C(C2CC2)C2CC2)c(F)c1)[C@@H](NC(=O)N(C)C1CC1)C(=O)N1C[C@H]2CC[C@@H](C1)N2C [Compound 295] | < 10 | 100 to 10000 | – | –
11 | CCn1nccc1C(=O)N[C@H](C(=O)Nc1ccc([C@H](C)[C@@H](NC(=O)N(C)C2CC2)C(=O)N2CCN(C)[C@H](C)C2)cc1F)C(C1CC1)C1CC1 [Compound 291] | < 10 | < 10 | – | –
12 | CCn1nccc1C(=O)N[C@H](C(=O)Nc1ccc([C@H](C)[C@@H](NC(=O)[C@H](C)OC)C(=O)N2CCN(C)CC2)cc1F)C(C1CC1)C1CC1 [Compound 222] | < 10 | 10 to 100 | – | –
13 | CCn1nccc1C(=O)N[C@H](C(=O)Nc1ccc([C@H](C)[C@@H](NC(=O)C(C)C2CC2)C(=O)N2CCN(C)[C@H](C)C2)cc1F)C(C1CC1)C1CC1 (single isomer, unassigned) [Compound 310] | – | 10 to 100 | – | A (pIC50 of greater than or equal 8 as A)
14 | CCOC(C)C(=O)N[C@@H](C(=O)N1CCN(C)[C@H](C)C1)[C@@H](C)c1ccc(NC(=O)[C@@H](NC(=O)c2ccnn2CC)C(C2CC2)C2CC2)c(F)c1 (single isomer, unassigned) [Compound 323] | < 10 | 10 to 100 | – | –
15 | CCOC(C)C(=O)N[C@@H](C(=O)N1CCN(C)CC1)[C@@H](C)c1ccc(NC(=O)[C@@H](NC(=O)c2ccnn2CC)C(C2CC2)C2CC2)c(F)c1 (single isomer, unassigned) [Compound 329] | 10 to 100 | 100 to 10000 | – | –
16 | CCn1nccc1C(=O)N[C@H](C(=O)Nc1ccc([C@H](C)[C@@H](NC(=O)[C@H](C)N(C)C2=NCCO2)C(=O)N2CCN(C)[C@H](C)C2)cc1F)C(C1CC1)C1CC1 [Compound 296] | < 10 | 10 to 100 | – | –
17 | CCC(=O)N[C@@H](C(=O)N1CCNC(CF)C1)[C@@H](C)c1ccc(NC(=O)[C@@H](NC(=O)c2nonc2CC)C(C2CC2)C2CC2)c(F)c1 (single isomer, unassigned) [Compound 304] | < 10 | 100 to 10000 | – | –

More lines, main results first:

Row | IC50 [1] [nM] | IC50 [2] [nM] | IL17AF HEK Blue pIC50 [2] | SMILES | IL17 AA HEK-5 pIC50 [1]
18 | < 10 | 10 to 100 | – | CCOC(=O)N[C@@H](CF)C(=O)N[C@@H](C(=O)N1CCN(C)[C@H](C)C1)[C@@H](C)c1ccc(NC(=O)[C@@H](NC(=O)c2nonc2C)C(C2CC2)C2CC2)c(F)c1 [Compound 363] | –
19 | < 10 | 100 to 10000 | – | CO[C@@H](C)C(=O)N[C@@H](C(=O)N1CCN(C)[C@H](C)C1)[C@@H](C)c1ccc(NC(=O)[C@@H](NC(=O)C2(F)CC2)C(C2CC2)C2CC2)c(F)c1 [Compound 273] | –
20 | < 10 | – | C (7>C≥5) | CCOC(C)C(=O)N[C@@H](C(=O)N1CCN(C)[C@H](C)C1)[C@@H](C)c1ccc(NC(=O)[C@@H](NC(=O)C2(F)CC2)C(C2CC2)C2CC2)c(F)c1 (single isomer, unassigned) [Compound 322] | –
21 | 10 to 100 | 100 to 10000 | – | CO[C@@H](C)C(=O)N[C@@H](C(=O)N1CCNC(CF)C1)[C@@H](C)c1ccc(NC(=O)[C@@H](NC(=O)C2(F)CC2)C(C2CC2)C2CC2)c(F)c1 (single isomer, unassigned) [Compound 301] | –
22 | < 10 | 100 to 10000 | – | CCOC(=O)N[C@@H](CF)C(=O)N[C@@H](C(=O)N1CCN(C)CC1)[C@@H](C)c1ccc(NC(=O)[C@@H](NC(=O)C2(F)CC2)C(C2CC2)C2CC2)c(F)c1 [Compound 359] | –
23 | < 10 | 100 to 10000 | – | COC(=O)N1CCC[C@H]1C(=O)N[C@@H](C(=O)N1CCN(C)[C@H](C)C1)[C@@H](C)c1ccc(NC(=O)[C@@H](NC(=O)C2(F)CC2)C(C2CC2)C2CC2)c(F)c1 [Compound 281] | –
24 | < 10 | 100 to 10000 | – | COC(=O)N1CC[C@H]1C(=O)N[C@@H](C(=O)N1CCN(C)[C@H](C)C1)[C@@H](C)c1ccc(NC(=O)[C@@H](NC(=O)C2(F)CC2)C(C2CC2)C2CC2)c(F)c1 [Compound 278] | –
25 | < 10 | 10 to 100 | – | CCOC(=O)N[C@@H](C)C(=O)N[C@@H](C(=O)N1CCN(C)[C@H](C)C1)[C@@H](C)c1ccc(NC(=O)[C@@H](NC(=O)C2(F)CC2)C(C2CC2)C2CC2)c(F)c1 [Compound 282] | –
26 | 10 to 100 | 100 to 10000 | – | CCC(OC)C(=O)N[C@@H](C(=O)N1CCN(C)[C@H](C)C1)[C@@H](C)c1ccc(NC(=O)[C@@H](NC(=O)C2(F)CC2)C(C2CC2)C2CC2)c(F)c1 (single isomer, unassigned) [Compound 336] | –
27 | < 10 | 100 to 10000 | – | CO[C@@H](C)C(=O)N[C@@H](C(=O)N1CCN(C)[C@H](C)C1)[C@@H](C)c1ccc(NC(=O)[C@@H](NC(=O)c2nonc2C)C(C2CC2)C2CC2)c(F)c1 [Compound 308] | –
28 | < 10 | 10 to 100 | – | CCOC(=O)N[C@@H](C)C(=O)N[C@@H](C(=O)N1CCN(C)CC1)[C@@H](C)c1ccc(NC(=O)[C@@H](NC(=O)c2nonc2C)C(C2CC2)C2CC2)c(F)c1 [Compound 361] | –
29 | < 10 | 100 to 10000 | – | CCOC(=O)N1CC[C@H]1C(=O)N[C@@H](C(=O)N1CCN(C)[C@H](C)C1)[C@@H](C)c1ccc(NC(=O)[C@@H](NC(=O)C2(F)CC2)C(C2CC2)C2CC2)c(F)c1 [Compound 275] | –
